Non-standard residues stand in square brackets, D forms with d. Residues, ends and D or L forms follow the SMILES beside them. Cha = N[C@@H](CC1CCCCC1)C(=O)O
Assays:
E. coli (NCTC 10418) [1] = assay type: cell-based, Escherichia coli; conditions: NCTC 10418, pH 7.4
Experimental: (§3) Gram-positive bacteria Staphylococcus aureus (NCTC 10788) and Enterococcus faecalis (NCTC 12697) and Gram-negative bacteria Escherichia coli (NCTC 10418), Pseudomonas aeruginosa (ATCC 27853), and Klebsiella pneumoniae (ATCC 43816) were tested. […] All the bacterial strains were inoculated in Mueller Hinton broth (MHB), pH 7.4 (Oxiod, Basingstoke, UK) at 37 °C. Then, the log-phase bacteria were mixed with the peptide at the concentrations from 512 to 1 µM in two-fold dilution, in a 96 well-plate. The wells contained sterilized MHB and bacteria cultures were employed as a blank and growth control, respectively.

MRSA (NCTC 12493) = assay type: cell-based, methicillin-resistant S. aureus; conditions: NCTC 12493, pH 7.4
Experimental: as §3

E. coli (NCTC 10418) [2] = assay type: cell-based, Escherichia coli
Experimental: (§1) Furthermore, the antimicrobial activity in the presence of MgCl2, CaCl2, NaCl and 10% fetal bovine serum (FBS) was investigated. In detail, 2 and 5 mM of MgCl2 and CaCl2, and 150 and 375 mM NaCl, were applied, respectively. The supplements were added into the medium that was used for diluting the bacteria suspension. Then, the diluted bacteria culture was mixed with the peptide stock solution in the 96-well plate, as mentioned above. The assay was performed three times and each assay contained 5 replicates.

E. faecalis (NCTC 12697) = assay type: cell-based, Enterococcus faecalis; conditions: NCTC 12697, pH 7.4
Experimental: as §3

[3] = tested on: P. aeruginosa (ATCC 27853); assay type: cell-based, Pseudomonas aeruginosa; conditions: ATCC 27853, pH 7.4
Experimental: as §3

S. aureus (NCTC 10788) [4] = assay type: cell-based, Staphylococcus aureus
Experimental: as §1

chymotrypsin = chymotrypsin (Bos taurus, UniProt P00766); test: Enzyme stability assay, chymotrypsin; assay type: in vitro ADME; conditions: peptide in PBS, peptide:chymotrypsin 100:1 (m/m), time points 0-120 min, stopped with 10% TFA, RP-HPLC peak area, three replicates
Experimental: (§2) The peptides were dissolved in phosphate-buffered saline (PBS) and mixed with the respective enzyme (trypsin and chymotrypsin) with a ratio of 100:1 (m/m). Then, 135 µl of the reaction solution was transferred into a new vial. The hydrolysis reaction was immediately terminated by adding 15 µl of 10% TFA at the different time points (0, 5, 10, 20, 40, 60, 120 min). The mixture was then analyzed by reverse-phase HPLC and respective peak areas were calculated to obtain the residual amount of peptides at different times.

[5] = tested on: K. pneumoniae (ATCC BAA 2342); assay type: cell-based, Klebsiella pneumoniae; conditions: ATCC BAA 2342, pH 7.4
Experimental: as §3

S. aureus (NCTC 10788) [6] = assay type: cell-based, Staphylococcus aureus; conditions: NCTC 10788, pH 7.4
Experimental: as §3

[7] = cited from earlier work
Text: Dermaseptins are a class of cationic AMPs that were discovered from the skin of Phyllomedusa frogs, usually consisting of 28–34 amino acids. They can form an amphipathic α-helix in amphiphilic environments, which makes them bind easily to bacterial lipid bilayers. Dermaseptins contain a conserved Trp residue in position three and a unique internal motif, -AAA/GKAAL/G/NA-, and exert broad-spectrum antimicrobial activity against a range of ESKAPE pathogens. […] Compared with the other AMPs applied using the same model, such as Japonicin-2LF [53], DMPC-10B exerted relatively stronger efficacy. Japonicin-2LF prevented around 50% mortality at 50 mg/kg in treatment of MRSA infection, but DMPC-10B achieved similar efficacy at 20 mg/kg.

trypsin = target: T1, trypsin (Bos taurus, UniProt P00760); test: Enzyme stability assay, trypsin; assay type: in vitro ADME; conditions: peptide in PBS, peptide:trypsin 100:1 (m/m), time points 0-120 min, stopped with 10% TFA, RP-HPLC peak area, three replicates
T1 construct: gene PRSS1
T1 sequence (P00760 24-246): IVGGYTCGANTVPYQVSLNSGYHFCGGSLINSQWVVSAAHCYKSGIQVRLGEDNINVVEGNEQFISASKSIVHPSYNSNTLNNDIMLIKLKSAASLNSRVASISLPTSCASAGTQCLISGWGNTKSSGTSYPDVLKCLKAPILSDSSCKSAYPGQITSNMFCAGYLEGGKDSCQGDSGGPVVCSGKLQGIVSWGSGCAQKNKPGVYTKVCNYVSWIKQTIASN
Experimental: as §2

[8] = tested on: K. pneumoniae (ATCC 43816); assay type: cell-based, Klebsiella pneumoniae; conditions: ATCC 43816, pH 7.4
Experimental: as §3

[9] = tested on: K. pneumoniae (ATCC BAA 1705); assay type: cell-based, Klebsiella pneumoniae; conditions: ATCC BAA 1705, pH 7.4
Experimental: as §3

CC(C)C[C@H](NC(=O)[C@H](C)N)C(=O)N[C@@H](Cc1c[nH]c2ccccc12)C(=O)N[C@@H](CCCCN)C(=O)N[C@@H](CCCCN)C(=O)N[C@@H](CC(C)C)C(=O)N[C@@H](CC(C)C)C(=O)N[C@@H](CCCCN)C(=O)N[C@@H](CCCCN)C(=O)N[C@@H](CC1CCCCC1)C(N)=O [DMPC-10A] (H-ALWKKLLKK[Cha]-NH2)
32 µM: MIC with NaCl 375 mM (E. coli (NCTC 10418) [2]) | MIC with NaCl 150 mM (S. aureus (NCTC 10788) [4]) | MBC [9] | MIC [9]
64 µM: MIC with CaCl2 5 mM (E. coli (NCTC 10418) [2]) | MIC with MgCl2 5 mM (E. coli (NCTC 10418) [2]) | MBC (E. faecalis (NCTC 12697)) | MIC (E. faecalis (NCTC 12697)) | MIC with CaCl2 5 mM (S. aureus (NCTC 10788) [4]) | MIC with MgCl2 5 mM (S. aureus (NCTC 10788) [4]) | MIC with NaCl 375 mM (S. aureus (NCTC 10788) [4]) | MBC [8]
4 µM: MBC [3] | MIC [3] | MIC, no additive (S. aureus (NCTC 10788) [4]) | MIC (S. aureus (NCTC 10788) [6]) | MIC [8]
8 µM: MBC (E. coli (NCTC 10418) [1]) | MIC (E. coli (NCTC 10418) [1]) | MIC (MRSA (NCTC 12493)) | MIC, no additive (E. coli (NCTC 10418) [2]) | MBC (S. aureus (NCTC 10788) [6])
considerable hemolytic effect: hemolytic effect [7]
16 µM: MBC (MRSA (NCTC 12493)) | MIC with FBS 10% (E. coli (NCTC 10418) [2]) | MIC with NaCl 150 mM (E. coli (NCTC 10418) [2]) | MIC with FBS 10% (S. aureus (NCTC 10788) [4]) | MBC [5] | MIC [5]
10 min: time in which trypsin completely cleaved the peptide (trypsin)
40 min: time in which chymotrypsin cleaved the peptide (chymotrypsin)
